In paper PMC8220418, “A fragment-based approach to assess the ligandability of ArgB, ArgC, ArgD and ArgF in the L-arginine biosynthetic pathway of Mycobacterium tuberculosis” (Computational and Structural Biotechnology Journal, 2021):
Converted amounts (≈) assume the structure as drawn.

Key:
ArgF [1] = target: T1, ArgF (Mycobacterium tuberculosis, UniProt P9WIT9); test: biochemical; assay type: binding; conditions: fragments at 5 mM, 5 µM ArgF, 5% DMSO; read-out: DSF ΔTm
Method: Fragment screening was carried out in a 96-well PCR plate using a CFX Connect Real-time PCR Detection System (Bio-Rad) for DSF. […] For ArgF each 25 μL reaction mixture contained 5 µM ArgF, 25 mM Tris-HCl (pH 8.0), 150 mM NaCl, 5x SYPRO Orange dye, 5 mM fragments and 5% DMSO (v/v). […] The protocol implemented increased temperature by 0.5 °C after every 30 s, going from 25 °C to 95 °C and measuring SYPRO Orange fluorescence for each temperature cycle. The melt curve RFU (relative fluorescence units) and derivative -d(RFU)/dT values were analysed and plotted using a macros-enabled Excel Workbook: the minima of the melt curves were recorded as the melting temperature (Tm) of the enzymes in the presence of each fragment. The Tm of the reference control (protein in the presence of DMSO) was subtracted from all the readings to calculate ΔTm.

ArgF [2] = target: T1, ArgF; test: Isothermal titration calorimetry with ArgF; assay type: binding; conditions: 25 °C, single-site model; read-out: ITC Kd
Method: ArgF was dialysed in 50 mM HEPES pH 8.0, 200 mM NaCl before it was loaded into the calorimetry cell at concentrations of 75–100 μM with the addition of 1 mM DTT. Ligand solutions at concentrations of 1 mM were dissolved in the same buffer and typically injected between 0.5 μL and 2 μL at 150 s intervals with stirring at 750 rpm. Buffer-ligand titrations were carried out as reference runs and subtracted from the protein–ligand titration to remove the heat of dilution. Data were analysed by fitting a simple single-site model using Origin software (Microcal).

ArgB [3] = target: T2, ArgB (Mycobacterium tuberculosis, UniProt P9WQ01); test: Ligand-observed NMR (CPMG) with ArgB, incl. displacement experiments; assay type: binding; conditions: 2 mM fragment, 10 µM ArgB; for NMR competition with natural ligands (ATP, NAG, L-arginine): 1 mM each natural ligand
ArgB [4] = target: T2, ArgB; test: Ligand-observed NMR (STD) with ArgB; assay type: binding; conditions: 2 mM fragment, 10 µM ArgB
ArgB [5] = target: T2, ArgB; test: Differential scanning fluorimetry (DSF) fragment screening against ArgB; assay type: binding; conditions: fragments at 5 mM, 10 µM ArgB, 5% DMSO
Method: Fragment screening was carried out in a 96-well PCR plate using a CFX Connect Real-time PCR Detection System (Bio-Rad) for DSF. For ArgB, each 25 μL reaction mixture contained 10 µM ArgB, 100 mM HEPES (pH 7.5), 200 mM NaCl, 5x SYPRO Orange, 5% DMSO (v/v), and fragments at 5 mM. For ArgF each 25 μL reaction mixture contained 5 µM ArgF, 25 mM Tris-HCl (pH 8.0), 150 mM NaCl, 5x SYPRO Orange dye, 5 mM fragments and 5% DMSO (v/v). For ArgC and ArgD, the 25 μL reaction volume consisted of the following: 2.5 μM ArgC/5 μM ArgD, 100 mM sodium phosphate pH 7, 200 mM NaCl, 5x SYPRO Orange, and 5 mM fragments (960 fragment library). The protocol implemented increased temperature by 0.5 °C after every 30 s, going from 25 °C to 95 °C and measuring SYPRO Orange fluorescence for each temperature cycle. The melt curve RFU (relative fluorescence units) and derivative -d(RFU)/dT values were analysed and plotted using a macros-enabled Excel Workbook: the minima of the melt curves were recorded as the melting temperature (Tm) of the enzymes in the presence of each fragment. The Tm of the reference control (protein in the presence of DMSO) was subtracted from all the readings to calculate ΔTm.

M. tuberculosis ΔargB-c = test: microbe, parasite or virus in culture; assay type: cell-based, Mycobacterium tuberculosis; conditions: for MIC: Mycobacterium tuberculosis
ArgB [6] = target: T2, ArgB; test: biochemical; assay type: binding; conditions: 25 °C, single-site model; read-out: ITC Kd
M. tuberculosis H37Rv = test: microbe, parasite or virus in culture; assay type: cell-based, Mycobacterium tuberculosis; conditions: for MIC: Mycobacterium tuberculosis, media without arginine; for Inhibitory activity on growth with arginine present: arginine (1 mM) in the media
ArgB [7] = target: T2, ArgB; test: ArgB enzymatic assay (ADP release coupled to NADH oxidation, pyruvate kinase/lactate dehydrogenase); assay type: biochemical; conditions: for IC50: 0.5 µM ArgB, 0.3 mM ATP, 1.25 mM NAG, 10% DMSO, read-out: IC50; for Nature of ArgB inhibition in enzymatic competition assays: 0.3 mM ATP or NAG, other substrate varied
Method: ArgB activity was assessed by a colorimetric assay that followed the release of ADP by measuring the oxidation of NADH at 340 nm, for 30 min, in the presence of pyruvate kinase and lactate dehydrogenase in a PHERAstar plate-reader (BMG-Labtech). […]. Inhibitors were also individually screened against the coupled enzymes to eliminate any compounds interfering with the other assay components. Competition assays were performed in the same conditions using 0.3 mM of ATP or NAG and varying the other substrate concentration.

[8] = tested on: M. tuberculosis MDR strain V2475; test: microbe, parasite or virus in culture; assay type: cell-based, Mycobacterium tuberculosis; conditions: for MIC: Mycobacterium tuberculosis
ArgD [9] = target: T3, ArgD (Mycobacterium tuberculosis, UniProt P9WPZ7); test: ArgD end point enzymatic assay (reverse reaction, 2-aminobenzaldehyde, 440 nm); assay type: biochemical
T3 sequence (P9WPZ7 whole entry, the tested form may be a part): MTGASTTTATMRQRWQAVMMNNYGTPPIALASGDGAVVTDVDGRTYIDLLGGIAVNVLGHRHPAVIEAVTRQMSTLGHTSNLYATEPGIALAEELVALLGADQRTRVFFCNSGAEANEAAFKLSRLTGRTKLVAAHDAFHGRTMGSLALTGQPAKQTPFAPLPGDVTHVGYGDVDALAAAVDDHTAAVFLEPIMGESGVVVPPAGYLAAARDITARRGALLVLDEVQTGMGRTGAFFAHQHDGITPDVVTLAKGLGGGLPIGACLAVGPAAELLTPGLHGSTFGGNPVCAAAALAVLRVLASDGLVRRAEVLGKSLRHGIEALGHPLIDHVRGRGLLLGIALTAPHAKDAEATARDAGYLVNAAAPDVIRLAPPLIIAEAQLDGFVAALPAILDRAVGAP
Method: To assess the activity of ArgD an end point assay that follows the reverse reaction of the enzyme was used in the presence and absence of fragments. Reactions (100 μL) were set up containing the following: 100 mM Tris-HCl pH 8, 3 mM N-acetylornithine (NAO), 3.4 mM α-KG, 20 μM PLP and 4 μM enzyme. Duplicate reaction mixtures were prepared for each time point and 8 time points (0, 5, 10, 15, 20, 30, 45, 60 min) were tested in total. Two controls were prepared: one with all reaction components except the enzyme, and the other with all reaction components except NAO (NAO was added after HCl treatment). The reactions tubes were allowed to equilibrate in a heating block set at 37 °C for two minutes, and the enzyme was added to initiate the reaction. After the stipulated incubation times, contents of the reaction tubes were quickly transferred to 1.5 ml microcentrifuge tubes containing 60 μL of 6 N HCl to stop the reactions. These tubes were then kept in a heating block set at 95 °C for 30 min, after which they were cooled to 25 °C in a water bath. 200 μL of 3.6 M sodium acetate was added to each tube (final concentration of 1.8 M), along with 40 μL of 30 mM 2-aminobenzaldehyde (final concentration of 3 mM in a total volume of 400 μL). A yellow colouration started developing as soon as the latter was added, the contents were vortexed and the tubes were incubated at 25 °C for 15 min. 200 μL of each reaction mixture was transferred into wells of a 96-well flat bottom UV transparent microplate, and absorbance at 440 nm was measured using the PHERAstar plate reader. All experiments were performed at least in triplicate in a PHERAstar plate-reader (BMG-Labtech) and the control without ArgD was used for blank subtraction. Data were analysed with GraphPad Prism (Graphpad Software). All reagents were obtained from Sigma-Aldrich.
Aminotransferases are often assayed for the reverse reactions they catalyse because in most cases substrates for the forward reaction are not commercially sold. […]

ArgD [10] = target: T3, ArgD; test: Surface plasmon resonance with immobilised ArgD; assay type: binding; conditions: fragments at 1 mM, adjusted for molecular weight
ArgD [11] = target: T3, ArgD; test: Differential scanning fluorimetry (DSF) against ArgD; assay type: binding; conditions: fragments at 5 mM, PLP-unsaturated ArgD
M. tuberculosis = tested on: M. tuberculosis; set-up: method as in PMID 29483133; conditions: BALB/c mice, chemical inhibition of ArgJ; cited from earlier work

T1 sequence (P9WIT9 whole entry, the tested form may be a part): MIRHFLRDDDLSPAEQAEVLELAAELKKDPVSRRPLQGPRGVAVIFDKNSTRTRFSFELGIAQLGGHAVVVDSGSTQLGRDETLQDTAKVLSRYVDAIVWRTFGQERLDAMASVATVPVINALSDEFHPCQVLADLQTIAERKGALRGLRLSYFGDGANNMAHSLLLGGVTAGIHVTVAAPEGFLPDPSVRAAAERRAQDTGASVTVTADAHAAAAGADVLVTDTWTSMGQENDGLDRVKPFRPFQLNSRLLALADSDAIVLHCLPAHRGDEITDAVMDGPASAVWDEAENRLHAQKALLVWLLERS

Cc1sc(N)nc1-c1ccccc1 [NMR007]
ΔTm at 5000 µM (ArgF [1]): 3 °C
Kd (ArgF [2]): 161 ± 20 µM

O=c1cc[nH]c2c(C(F)(F)F)cccc12 [NMR446, 8-(trifluoromethyl)-1H-quinolin-4-one]
CPMG (ArgB [3]): binds
NMR competition with natural ligands (ATP, NAG, L-arginine) (ArgB [3]): not competitive
STD (ArgB [4]): binds
ΔTm at 5000 µM (ArgB [5]): 8 °C
Inhibitory activity on growth with arginine present (M. tuberculosis ΔargB-c): no inhibitory activity
MIC (M. tuberculosis ΔargB-c): > 200 µg/mL
Kd (ArgB [6]): 24 ± 1.5 µM
MIC (M. tuberculosis H37Rv): > 200 µg/mL
Inhibitory activity on growth with arginine present (M. tuberculosis H37Rv): no inhibitory activity
IC50 (ArgB [7]): 707 ± 7 µM
Nature of ArgB inhibition in enzymatic competition assays (ArgB [7]): non-competitive
MIC [8]: > 200 µg/mL

O=C(O)c1cc2ccccc2cc1O [NMR608, 3-Hydroxy-2-naphthoic acid]
% inhibition at 2 mM (ArgD [9]; 2 mM fragment, 4 μM ArgD): 16.6%
inhibition at 2000 µM (ArgD [9]; 2 mM fragment, 4 μM ArgD): 16%
inhibition at 4000 µM (ArgD [9]; read-out: % inhibition at 4 mM, 4 mM fragment, 4 μM ArgD): 31%
SPR Binding Response with PLP injection (ArgD [10]): 50.3 RU
ΔTm at 5000 µM (ArgD [11]): 2.4 °C

O=c1cc(C(F)(F)F)[nH]c2c(C(F)(F)F)cccc12 [NMR711, 2,8-bis(trifluoromethyl)-1H-quinolin-4-one]
CPMG (ArgB [3]): binds
NMR competition with natural ligands (ATP, NAG, L-arginine) (ArgB [3]): not competitive
STD (ArgB [4]): binds
ΔTm at 5000 µM (ArgB [5]): 7.9 °C
Inhibitory activity on growth with arginine present (M. tuberculosis ΔargB-c): inhibitory
MIC (M. tuberculosis ΔargB-c): 25 to 50 µg/mL (≈ 88.9 to 178 µM)
Kd (ArgB [6]): 7.7 ± 0.8 µM
MIC (M. tuberculosis H37Rv): 25 to 50 µg/mL (≈ 88.9 to 178 µM)
Inhibitory activity on growth with arginine present (M. tuberculosis H37Rv): inhibitory
IC50 (ArgB [7]): 366 ± 4 µM
Nature of ArgB inhibition in enzymatic competition assays (ArgB [7]): non-competitive
MIC [8]: 25 to 50 µg/mL (≈ 88.9 to 178 µM)
Inhibitory activity on growth with arginine present ([8]; V2475, arginine (1 mM) in the media): inhibitory

OB(O)c1cc(Cl)cc(Cl)c1 [NMR812]
ΔTm at 5000 µM (ArgF [1]): 3.6 °C
Kd (ArgF [2]): 120 ± 30 µM

O=C(Nc1cccc2c(=O)cc(-c3nnn[nH]3)oc12)c1ccc(OCCCCc2ccccc2)cc1 [Pranlukast]
Effect on chronic M. tuberculosis infection (M. tuberculosis): cleared a chronic M. tuberculosis infection
